The source made the active and inactive calls. No rule for the calls is given here.
Tested on: CCRIS mutagenicity, Ames/micronucleus/aberration tests
Assay: CCRIS mutagenicity studies
Settings: Test System: AMES SALMONELLA TYPHIMURIUM, Method: STANDARD PLATE

Measured: mutagenic call

CC(C)CCCCCCOC(=O)c1ccccc1C(=O)OCCCCCCC(C)C
inactive: Strain/Indicator: TA98, Metabolic Activation: NONE inactive; negative | Strain/Indicator: TA98, Metabolic Activation: RAT LIVER S-9, AROCLOR inactive; negative | Strain/Indicator: TA100, Metabolic Activation: NONE inactive; negative | Strain/Indicator: TA100, Metabolic Activation: RAT LIVER S-9, AROCLOR inactive; negative | Strain/Indicator: TA1535, Metabolic Activation: NONE inactive; negative | Strain/Indicator: TA1535, Metabolic Activation: RAT LIVER S-9, AROCLOR inactive; negative | Strain/Indicator: TA1537, Metabolic Activation: NONE inactive; negative | Strain/Indicator: TA1537, Metabolic Activation: RAT LIVER S-9, AROCLOR inactive; negative | Strain/Indicator: TA1538, Metabolic Activation: NONE inactive; negative | Strain/Indicator: TA1538, Metabolic Activation: RAT LIVER S-9, AROCLOR inactive; negative

— PubChem BioAssay AID1259407 (Chemical Carcinogenesis Research Information System (CCRIS), 2018)
